The values that follow come from ChEMBL document CHEMBL3108737, “HIV Integrase Inhibitors for Treatment of HIV Infections and AIDS” (ACS Med Chem Lett, 2014).

The target of the test is Human immunodeficiency virus type 1 integrase (Human immunodeficiency virus 1) (UniProt Q7ZJM1). The test can be described thus: Inhibition of HIV1 integrase-mediated viral replication in human MT4 cells after 72 hrs in presence of 10% normal human serum. Type of test: cell-based.
Sequence of Human immunodeficiency virus type 1 integrase (Human immunodeficiency virus 1) (Q7ZJM1 as listed by the source): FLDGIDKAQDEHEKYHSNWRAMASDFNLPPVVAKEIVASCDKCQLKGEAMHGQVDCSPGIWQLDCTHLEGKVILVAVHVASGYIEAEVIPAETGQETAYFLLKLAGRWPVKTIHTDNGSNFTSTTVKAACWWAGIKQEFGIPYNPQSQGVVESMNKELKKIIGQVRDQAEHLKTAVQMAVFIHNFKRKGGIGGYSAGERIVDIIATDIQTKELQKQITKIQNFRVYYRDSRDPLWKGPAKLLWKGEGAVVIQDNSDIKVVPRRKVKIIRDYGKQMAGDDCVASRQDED
Usually IC95 stands for the concentration needed for an effect of 95%. For `CC[C@H]1COC[C@@H]2c3nc(c(O)c(=O)n31)C(=O)NCc1ccc(F)cc1OCCCCC(=O)N2C`, the concentration for an effect of 95% (IC95) came out at 9 nM.

As for `CC[C@H]1COCC2c3nc(c(O)c(=O)n31)C(=O)NCc1cc(C)c(F)cc1OCC/C=C/C(=O)N2C` (stereo partly drawn), the IC95 is 6 nM.

On to `CN1CCCc2cc(F)ccc2CNC(=O)c2nc3n(c(=O)c2O)CCCCC3N(C)C(=O)C1=O` (stereo not drawn), for which the IC95 was determined as 2260 nM.
